{
  "source": "patent US20240391931A1",
  "about": "(Bristol-Myers Squibb Company, priority 2021, published 2024)",
  "target": "HER2YVMA (Homo sapiens, UniProt P04626, INS775YVMA)",
  "sequence (P04626 with tags, fused parts or gaps INS775YVMA)": "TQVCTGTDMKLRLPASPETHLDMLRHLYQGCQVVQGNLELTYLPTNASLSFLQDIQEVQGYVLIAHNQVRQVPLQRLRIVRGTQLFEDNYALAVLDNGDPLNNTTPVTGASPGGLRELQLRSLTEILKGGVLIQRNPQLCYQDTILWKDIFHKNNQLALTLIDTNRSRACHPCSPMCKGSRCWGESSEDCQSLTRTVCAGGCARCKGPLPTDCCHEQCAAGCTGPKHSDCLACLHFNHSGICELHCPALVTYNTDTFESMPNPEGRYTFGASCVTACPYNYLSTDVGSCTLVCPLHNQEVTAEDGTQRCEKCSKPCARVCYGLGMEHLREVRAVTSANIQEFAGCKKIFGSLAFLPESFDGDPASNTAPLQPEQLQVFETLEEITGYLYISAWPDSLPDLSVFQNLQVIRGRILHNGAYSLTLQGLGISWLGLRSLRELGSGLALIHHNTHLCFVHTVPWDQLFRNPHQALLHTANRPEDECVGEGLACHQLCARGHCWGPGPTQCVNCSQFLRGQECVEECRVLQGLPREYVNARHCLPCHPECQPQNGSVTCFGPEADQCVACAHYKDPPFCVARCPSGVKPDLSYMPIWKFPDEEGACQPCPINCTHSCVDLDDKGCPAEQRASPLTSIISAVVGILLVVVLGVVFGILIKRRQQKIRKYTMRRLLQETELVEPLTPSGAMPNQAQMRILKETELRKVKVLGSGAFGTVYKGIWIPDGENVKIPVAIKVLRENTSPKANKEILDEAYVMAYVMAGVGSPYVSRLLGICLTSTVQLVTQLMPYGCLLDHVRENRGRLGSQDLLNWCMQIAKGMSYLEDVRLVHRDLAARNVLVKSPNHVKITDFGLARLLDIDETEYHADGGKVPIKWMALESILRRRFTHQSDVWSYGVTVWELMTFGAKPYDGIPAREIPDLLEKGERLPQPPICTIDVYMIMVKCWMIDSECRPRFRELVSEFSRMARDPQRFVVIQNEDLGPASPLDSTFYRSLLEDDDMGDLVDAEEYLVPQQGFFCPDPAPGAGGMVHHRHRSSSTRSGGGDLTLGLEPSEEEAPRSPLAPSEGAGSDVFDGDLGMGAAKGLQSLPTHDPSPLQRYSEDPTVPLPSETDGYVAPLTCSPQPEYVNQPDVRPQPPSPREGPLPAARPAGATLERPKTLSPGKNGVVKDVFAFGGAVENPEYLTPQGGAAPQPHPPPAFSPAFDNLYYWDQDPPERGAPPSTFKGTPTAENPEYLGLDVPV",
  "assay": "HER2 signaling (pHER2) in BEAS2B-HER2YVMA cells",
  "assay_type": "cell-based",
  "parameters": "expressed in transfected cells; host or cells: HEK293 (pool), Ba/F3 (clones), BEAS2B (clones); lentiviral vector pCDH-CMV-MCS-EF1-Neo",
  "conditions": "read-out: BEAS2B YVMA pHER2 EC50",
  "description": "Cell culture, plasmid cloning, and lentiviral transduction were carried out according to standard procedures. The Human HER2 cDNA construct in pCMV6-Entry for the HER2 wildtype (WT) expression was obtained from Origene. The HER2 cDNA including the 12-nucleotide insertion corresponding to YVMA insertion (HER2YVMA) was codon optimized, synthesized and cloned by GenScript (Piscataway, NJ) in pcDNA3.1. The lentiviral constructs expressing HER2YVMA and HER2 WT were sub-cloned using PCR at System Biosciences (SBI, Mountainview, CA) into lentiviral vectors pCDH-CMV-MCS-EF1-Neo and lentiviral particles were generated.\nEngineered lines expressing HER2YVMA and HER2 WT were prepared in HEK293 (human embryonic kidney cells), Ba/F3 (Interleukin 3 (IL3)-dependent murine pro B cell line), and BEAS2B (primary immortalized human bronchial epithelial cell line). […]\nHER2 signaling was assessed in BT474 and N87 cell lines which endogenously overexpress the HER2 wildtype (WT) protein, in NCI-H1781 cells which endogenously expresses a HER2 mutant protein containing a VC insertion in the kinase domain (HER2VC or G776delinsVC), and in engineered cell lines transduced to express the Her2 mutant protein containing the YVMA insertion (Hek293-HER2YVMA and BEAS2B-HER2YVMA). […]\nHER2 signaling was evaluated using phospho (Tyr1248)/total ErbB2 whole cell lysate MSD plates (Meso-Scale Discovery, Gaithersburg, MD). […]",
  "data": [
    {"smiles": "COc1ccc(Oc2ccc(Nc3ncnc4sc5c(c34)CCN(C(=O)/C=C/CN(C)C)C5)cc2C)cn1", "note": "[Compound 95, (E)-4-(Dimethylamino)-1-(4-((4-((6-methoxypyridin-3-yl)oxy)-3-methylphenyl)amino)-5,6-dihydropyrido[4′,3′:4,5]thieno[2,3-d]pyrimidin-7(8H)-yl)but-2-en-1-one]", "values": [
      {"measurement": "EC50", "value": "< 100", "unit": "nM"}
    ]}
  ]
}
